From publication PMC12074479, “Design, Synthesis, and Biological Evaluation of New Analogs of Aurein 1.2 Containing Non-Proteinogenic Amino Acids” (Molecules, 2025)
Values after ≈ are worked out from the molar mass of the structure shown. Read-outs that look alike come from different tables or passages of the source. Where a SMILES comes first, the peptide text is derived from it. Where no end group is shown, it is not given here. [ ]: non-standard residue; d: D form. Orn = NCCC[C@H](N)C(=O)O; Dab = NCC[C@H](N)C(=O)O; Dap = NC[C@H](N)C(=O)O

Key:
MCF-12F = assay: cells; details: 72 h
Experimental: (§1) The peptides were studied for antiproliferative activity with an MTT-dye reduction assay. Cell cultures were incubated with the test peptides in twofold increasing concentrations (from 2 to 500 μM) for 72 h.
(§2) The antiproliferative activity of the peptides was determined in normal epithelial cells (MCF-12F) and tumor cells (MCF-7 and MDA-MB-231) by MTT-assay. Cells were plated 1 × 10^3 cells/100 µL/well of 96-well plates and incubated in a thermostat under standard conditions for 24 h. Cells were then incubated with the tested peptide analogs for 72 h in different concentrations (from 2 to 500 µM). The optical density of the formazan was measured at λ = 540 nm using a microplate reader. Antiproliferative activity was expressed as % from negative control. […] The statistical analysis of the results was performed using one-way ANOVA followed by Bonferroni’s post hoc test by GraphPad Prism 8 software (San Diego, CA, USA).

MCF-7 = assay: cells; details: 72 h
Experimental: as §1, §2

MDA-MB-231 = assay: cells; details: 72 h
Experimental: as §1, §2

BALB 3T3 cells = assay: in vitro
Experimental: (§3) An in vitro BALB 3T3 Neutral Red Uptake assay was used to determine the cytotoxicity/phototoxicity of the peptides. Cytotoxicity of peptide analogs was calculated as a percentage relative to the negative control. […] Photo irritation factor (PIF) was used to assess the phototoxic potential of the peptide analogs. The PIF factor represents the ratio between the CC50 values of dark (non-irradiated or—Irr) and irradiated (+Irr) microplates, PIF = (CC50 − Irr)/(CC50 + Irr).
(§4) Mouse embryonic fibroblasts (BALB 3T3) were used to perform the cytotoxicity and phototoxicity tests. The tests were performed by OECD Guidelines for the Testing of Chemicals, Section 4, Test No. 432. Cells were plated at 1 × 10^4 cells/well in 96-well plates. Cells were incubated in a thermostat for 24 h. Then, the test peptides were added at various working concentrations (4–1000 μM). In the phototoxicity test, 96-well plates were irradiated with a dose of 2.4 J/cm^2 using a solar light simulator Helios-iO (SERIC Ltd., Tokyo, Japan). Cell viability was measured using the BALB 3T3 neutral red uptake test. Cytotoxicity is presented as % relative to the negative control.

in vitro = details: mouse, Mean CC50 ± SD
Experimental: as §3, §4

[1] = tested on: Escherichia coli NBIMCC K12 407
Experimental: (§5) The antimicrobial activity of the 7 new analogs of aurein 1.2 was evaluated by determining the MIC and MBC against Gram-positive strain Bacillus subtilis 3562 and Gram-negative strain Escherichia coli K12 407. The MIC of the newly synthesized analogs was assessed by applying a broth microdilution method, whereas their MBC was determined by using a spread plate method. All experiments were performed in triplicate.
(§6) Bacillus subtilis NBIMCC 3562 and Escherichia coli NBIMCC K12 407 were used as test microorganisms and were purchased from the National Bank for Industrial Microorganisms and Cell Cultures (NBIMCC, Sofia, Bulgaria). Exponential cultures were obtained in Nutrient broth (NB, HiMedia, Mumbai, India) for B. subtilis NBIMCC 3562 and Luria-Bertani (LB, HiMedia, Mumbai, India) for E. coli NBIMCC K12 407, after cultivation in an incubator shaker ES-20/60 (Biosan, Latvia) at 30/37 °C for 24 h. Then, the turbidity of the microbial cultures was adjusted to the 0.5 McFarland standard using a Grant Bio DEN-1B Densitometer (Grant Instruments, Royston, UK).
(§7) The antimicrobial activity of the obtained aurein 1.2 analogs was evaluated using the broth microdilution method, recommended by the Clinical and Laboratory Standards Institute (CLSI), to determine the minimum inhibitory concentration (MIC) of the peptides against B. subtilis NBIMCC 3562 and E. coli NBIMCC K12 407. All peptides were previously dissolved in 10% EtOH/H2O, and their 10 mg/mL stock solutions were stored at −20 °C. Bacterial cultures, previously adjusted to 0.5 McFarland standard, were incubated in the presence of different peptide concentrations (0–320 µg/mL) in 96-well polystyrene microplates (Deltalab S.L., Barcelona, Spain) at 30/37 °C for 24 h. The lowest concentration of each peptide, which inhibited bacterial growth, was considered as MIC. In addition, a drop of 20 µL of the 24 h inhibitory concentration test samples was spotted on the corresponding solid media to determine the minimum bactericidal concentration (MBC). […] All experiments were performed in triplicate.

[2] = tested on: Bacillus subtilis NBIMCC 3562
Experimental: as §5, §6, §7

[3] = +Irr, BALB 3T3 cells, irradiated 2.4 J/cm^2, NRU
[4] = −Irr, BALB 3T3 cells, non-irradiated (dark), NRU
[5] = broth microdilution, 0–320 µg/mL, 24 h, NI = no inhibition monitored

Row | Compound | IC50 (MCF-12F) [µM] | IC50 (MCF-7) [µM] | IC50 (MDA-MB-231) [µM] | PIF (Photo Irritation Factor) (BALB 3T3 cells) | CC50 (in vitro; +Irr) [µM] | MIC, Escherichia coli NBIMCC K12 407 ([1]; K12, 24 h) [µg/mL] | MBC, Bacillus subtilis NBIMCC 3562 ([2]; NBIMCC 3562, 24 h) [µg/mL] | MIC, Bacillus subtilis NBIMCC 3562 ([2]; NBIMCC 3562, 24 h) [µg/mL] | CC50 (in vitro; [3]) [µM] | CC50 (in vitro; [4]) [µM] | Toxicity compared to the parent peptide aurein 1.2 (BALB 3T3 cells; BALB 3T3 cells, fold lower toxicity) | IC50 (MCF-12F; read-out: Mean IC50 ± SD, MCF-12F, MTT, normal cell line) [µM] | IC50 (MCF-7; read-out: Mean IC50 ± SD, MCF-7, MTT) [µM] | IC50 (MDA-MB-231; read-out: Mean IC50 ± SD, MDA-MB-231, MTT) [µM] | PIF (Photo Irritation Factor) (BALB 3T3 cells; PIF = (CC50 −Irr)/(CC50 +Irr), PIF < 2 not phototoxic, 2 < PIF < 5 possible phototoxicity, PIF > 5 phototoxic) | MIC, Escherichia coli NBIMCC K12 407 [1, 5] [µg/mL] | MIC, Bacillus subtilis NBIMCC 3562 [2, 5] [µg/mL]
1 | CC[C@H](C)[C@H](NC(=O)[C@H](CCCCN)NC(=O)[C@H](CCN)NC(=O)[C@@H](NC(=O)[C@@H](NC(=O)[C@H](CC(=O)O)NC(=O)[C@H](Cc1ccccc1)NC(=O)[C@H](CC(C)C)NC(=O)CN)[C@@H](C)CC)[C@@H](C)CC)C(=O)N[C@@H](C)C(=O)N[C@@H](CCC(=O)O)C(=O)N[C@@H](CO)C(=O)N[C@@H](Cc1ccccc1)C(N)=O [EH [Dab]^7, Gly-Leu-Phe-Asp-Ile-Ile-Dab^7-Lys-Ile-Ala-Glu-Ser-Phe-NH2] (H-GLFDII[Dab]KIAESF-NH2) | 92.1 ± 2.12 | 74.4 ± 3.29 | 125 ± 4.97 | 1.40 | 113 ± 5.57 | 80 (≈ 55.1 µM) | 320 (≈ 220 µM) | 80 (≈ 55.1 µM) | – | – | – | – | – | – | – | – | –
2 | CC[C@H](C)[C@H](NC(=O)[C@H](CCN)NC(=O)[C@H](CCCCN)NC(=O)[C@@H](NC(=O)[C@@H](NC(=O)[C@H](CC(=O)O)NC(=O)[C@H](Cc1ccccc1)NC(=O)[C@H](CC(C)C)NC(=O)CN)[C@@H](C)CC)[C@@H](C)CC)C(=O)N[C@@H](C)C(=O)N[C@@H](CCC(=O)O)C(=O)N[C@@H](CO)C(=O)N[C@@H](Cc1ccccc1)C(N)=O [EH [Dab]^8, Gly-Leu-Phe-Asp-Ile-Ile-Lys-Dab^8-Ile-Ala-Glu-Ser-Phe-NH2] (H-GLFDIIK[Dab]IAESF-NH2) | 68.3 ± 3.51 | 67.2 ± 2.57 | 79.7 ± 1.78 | 1.13 | 81.4 ± 2.34 | 80 (≈ 55.1 µM) | 320 (≈ 220 µM) | 80 (≈ 55.1 µM) | – | – | – | – | – | – | – | – | –
3 | CC[C@H](C)[C@H](NC(=O)[C@H](CCCN)NC(=O)[C@H](CCCCN)NC(=O)[C@@H](NC(=O)[C@@H](NC(=O)[C@H](CC(=O)O)NC(=O)[C@H](Cc1ccccc1)NC(=O)[C@H](CC(C)C)NC(=O)CN)[C@@H](C)CC)[C@@H](C)CC)C(=O)N[C@@H](C)C(=O)N[C@@H](CCC(=O)O)C(=O)N[C@@H](CO)C(=O)N[C@@H](Cc1ccccc1)C(N)=O [EH [Orn]^8, Gly-Leu-Phe-Asp-Ile-Ile-Lys-Orn^8-Ile-Ala-Glu-Ser-Phe-NH2] (H-GLFDIIK[Orn]IAESF-NH2) | – | – | – | – | – | – | – | – | 59.5 ± 5.21 | 75.6 ± 3.33 | – | – | – | – | – | – | –
4 | CC[C@H](C)[C@H](NC(=O)[C@H](CN)NC(=O)[C@H](CN)NC(=O)[C@@H](NC(=O)[C@@H](NC(=O)[C@H](CC(=O)O)NC(=O)[C@H](Cc1ccccc1)NC(=O)[C@H](CC(C)C)NC(=O)CN)[C@@H](C)CC)[C@@H](C)CC)C(=O)N[C@@H](C)C(=O)N[C@@H](CCC(=O)O)C(=O)N[C@@H](CO)C(=O)N[C@@H](Cc1ccccc1)C(N)=O [EH [Dap]^7,8, Gly-Leu-Phe-Asp-Ile-Ile-Dap^7-Dap^8-Ile-Ala-Glu-Ser-Phe-NH2] (H-GLFDII[Dap][Dap]IAESF-NH2) | 308 ± 21.7 | 289 ± 19.8 | 372.2 ± 3.17 | 1.01 | 357.5 ± 3.03 | – | – | 320 (≈ 229 µM) | – | – | two to four times lower toxicity | – | – | – | – | – | –
5 | GLFDIIKKIAESF-NH2 [Aurein 1.2, Gly^1-Leu^2-Phe^3-Asp^4-Ile^5-Ile^6-Lys^7-Lys^8-Ile^9-Ala^10-Glu^11-Ser^12-Phe^13-NH2] | – | – | – | – | – | – | – | – | 87.2 ± 1.88 | 87.6 ± 2.45 | – | 71.4 ± 2.88 | 68.9 ± 2.12 | 70.9 ± 2.06 | 1 | 40 | 160
